Reference: patent US20080214527A1, “Hiv Integrase Inhibitors” (priority 2005, published 2008)
pEC50, pIC50: −log10 of the molar value.

Key:
[1] = tested on: HIV-1 (IIIB strain) in MT-4 cells; assay: MT4 assay: inhibition of virus-induced CPE in MT-4 cells (MTT method); assay type: cell-based; settings: Human immunodeficiency virus 1, MT4, 96 h, 4-day incubation, read-out: anti-HIV activity EC50
Experimental: MT-4 cells (human T-cell line established by HTLV-I-induced transformation) were cultured in RPMI1640 medium supplemented with 10% fetal calf serum and kanamycin ([…]) in 5% CO2, humidified incubator at 37° C. The stock of HIV-1 was produced as follows. Molt-4 cells persistently infected with HIV-1 (IIIB strain) were cultured for 3 days and culture supernatant was collected. After removal of cells by centrifugation, the supernatant was passed through membrane filter ([…]) and stored as cell-free culture supernatant at −80° C. The infectivity of the stock virus was measured by MTT assay.
Anti-HIV activity in vitro of test compounds was assayed by inhibition of virus-induced CPE in MT-4 cells. MT-4 cells were suspended in culture medium at 2.5×10^5 cells/ml. The cell suspension ([…]) was added to each well of a 96 well flat-bottom microtiter plate containing serial 2-fold dilution of test compounds ([…]). HIV-1 ([…]) was added to each well (4-10 TCID50/well). After 4-day incubation at 37° C., the viability of MT-4 cells was determined by the MTT method using 3-(4,5-dimethylthiazol-2-yl)-2,5-diphenyltetrazolium bromide.
The absorbance (OD) of each well was measured at two wavelengths (560 and 690 nm). All data represent the average values of three wells. The concentration (conc.) achieving 50% protection of HIV replication (EC50) were calculated.

HIV integrase = HIV integrase (Human immunodeficiency virus type 1 group M subtype B, UniProt P04585); assay: Integrase inhibition assay (substrate DNA/target DNA microtiter plate, OD 405 nm); assay type: biochemical
Experimental: The inhibitory activities of the present compounds against integrase were determined by the assay described below.
A substrate DNA solution (2 pmol/μl) and a target DNA solution (5 pmol/μl) were prepared by the same method as that described in Experimental Example 1 of WO 2004/024693. The DNA solutions were heated and then slowly cooled so that they were annealed with each complement. Each sequence of the substrate DNA and the target DNA is the same as described in the Experimental Example.
Streptavidin, obtained from Vector Laboratories, was dissolved in 0.1 M carbonate buffer (composition: 90 mM Na2CO3, 10 mM NaHCO3) at a concentration of 40 μg/ml. After coating each well of microtiter plates (obtained from NUNC) with 50 μl of the above solution at 4° C. over night, each well was washed twice with PBS (composition: […], 0.27 mM KCl, 0.43 mM Na2HPO4, 0.14 mM KH2PO4) and blocked with 300 μl of 1% skim milk in PBS for 30 min. Additionally, each well was washed twice with PBS and added with 50 μl of the substrate DNA solution (2 pmol/μl). The microtiter plates were kept at room temperature for 30 min. Then, each well was washed twice with PBS and once with H2O.
Subsequently, to the each well prepared above were added 51 μl of the reaction buffer prepared from 12 μl of the buffer (composition: 150 mM MOPS (pH 7.2), 75 mM MnCl2, 50 mM 2-mercaptoethanol, 25% glycerol, 500 μg/ml bovine serum albumin-fraction V) and 39 μl of the distilled water. Additionally, 9 μl of an integrase solution (30 pmol) was added thereto and the mixture was mixed well. To the well of negative control (NC) was added 9 μl of the integrase dilution buffer (composition: 20 mM MOPS (pH7.2), 400 mM potassium glutamate, 1 mM EDTA, 0.1% NP-40, 20% glycerol, 1 mM DTT, 4 M urea).
The microtiter plates were incubated at 30° C. for 1 hour. The reaction solution was removed and each well was washed three times with 250 μl of the wash buffer (composition: 150 mM MOPS (pH 7.2), 50 mM 2-mercaptoethanol, 25% glycerol, 500 μg/ml bovine serum albumin-fraction V).
Subsequently, to each well prepared above were added 53 μl of the reaction buffer prepared from 12 μl of the buffer (composition: 150 mM MOPS (pH 7.2), 75 mM MgCl2, 50 mM 2-mercaptoethanol, 25% glycerol, 500 μg/ml bovine serum albumin-fraction V) and 41 μl of the distilled water. Additionally, 6 μl of either a test compound in DMSO or DMSO for positive control (PC) was mixed well. After the microtiter plates were incubated at 30° C. for 30 minutes, 1 μl of target DNA (5 pmol/μl) was added to each well, and the reaction mixture was mixed well.
The microtiter plates were incubated at 30° C. for 10 minutes. The reaction solution was removed and each well was washed twice with PBS. Subsequently, each well of the microtiter plates was filled with 100 μl of anti-digoxigenin antibody labeled with alkaline phosphatase (Sheep Fab fragment: obtained from Boehringer) and incubated at 30° C. for 1 hour. Then, each well was washed twice with 0.05% Tween20 in PBS and once with PBS. Next, 150 μl of the Alkaline phosphatase reaction buffer (composition: 10 mM p-Nitrophenylphosphate (obtained from Vector Laboratories), 5 mM MgCl2, 100 mM NaCl, 100 mM Tris-HCl (pH 9.5)) was added to each well. The microtiter plates were incubated at 30° C. for 2 hours and the reaction was terminated by the addition of 50 μl of 1 N NaOH solution. The optical density (OD) at 405 nm of each well was measured and the percent inhibition was determined by the following expression.
The percent inhibition (%)=100[1−{(C abs.−NC abs.)/(PC abs.−NC abs.)}]
When the percent inhibition (%) is X % at a concentration of ×μg/ml and the percent inhibition (%) is Y % at a concentration of y μg/ml, one of which is more than 50% and the other is less than 50%, IC50 can be determined by the following expression.
IC50(μg/ml)=x−{(X−50)(x−y)/(X−Y)}

SMILES | pEC50 [1] | pIC50 (HIV integrase) | melting point [°C]
Cn1c(=O)c(C(=O)NCCO)c(O)c2ncc(Cc3ccc(F)cc3CN3CCCCS3(=O)=O)cc21 [Example 33, 7-[2-(1,1-Dioxo-1lambda*6*-[1,2]thiazinan-2-ylmethyl)-4-fluoro-benzyl]-4-hydroxy-1-methyl-2-oxo-1,2-dihydro-[1,5]naphthyridine-3-carboxylic acid(2-hydroxy-ethyl)-amide] | 7.00 to 9.00 | > 7.00 | 
CC(=O)c1cc(F)ccc1Cc1cnc2c(O)c(C(=O)NCCO)c(=O)n(C)c2c1 [Example 17, 7-(2-Acetyl-4-fluoro-benzyl)-4-hydroxy-1-methyl-2-oxo-1,2-dihydro-[1,5]naphthyridine-3-carboxylic acid(2-hydroxy-ethyl)-amide] | 7.00 to 9.00 | > 7.00 | 212 to 215
COCCNC(=O)c1c(O)c2ncc(Cc3ccc(F)cc3COC(N)=O)cc2n(C)c1=O [Example 22, Carbamic acid 5-fluoro-2-[8-hydroxy-7-(2-methoxy-ethylcarbamoyl)-5-methyl-6-oxo-5,6-dihydro-[1,5]naphthyridin-3-ylmethyl]-benzyl ester] | 7.00 to 9.00 | > 7.00 | 180 to 183
Cn1c(=O)c(C(=O)NCCO)c(O)c2ncc(Cc3ccc(F)cc3OCCN3CCOCC3)cc21 [Example 9, 7-[4-Fluoro-2-(2-morpholin-4-yl-ethoxy)-benzyl]-4-hydroxy-1-methyl-2-oxo-1,2-dihydro-[1,5]naphthyridine-3-carboxylic acid(2-hydroxy-ethyl)-amide] | 7.00 to 9.00 | > 7.00 | 161 to 162
COCC#Cc1cc(F)ccc1Cc1cnc2c(O)c(C(=O)NCCOC)c(=O)n(C)c2c1 [Example 15, 7-[4-Fluoro-2-(3-methoxy-prop-1-ynyl)-benzyl]-4-hydroxy-1-methyl-2-oxo-1,2-dihydro-[1,5]naphthyridine-3-carboxylic acid(2-methoxy-ethyl)-amide] | 7.00 to 9.00 | > 7.00 | 179 to 180
COCC#Cc1cc(F)ccc1Cc1cnc2c(O)c(C(=O)NCCO)c(=O)n(C)c2c1 [Example 13, 7-[4-Fluoro-2-(3-methoxy-prop-1-ynyl)-benzyl]-4-hydroxy-1-methyl-2-oxo-1,2-dihydro-[1,5]naphthyridine-3-carboxylic acid(2-hydroxy-ethyl)-amide] | 7.00 to 9.00 | > 7.00 | 
Cn1c(=O)c(C(=O)NCCO)c(O)c2ncc(Cc3ccc(F)cc3COC(N)=O)cc21 |  |  | 238 to 240
CCNC(=O)OCc1cc(F)ccc1Cc1cnc2c(O)c(C(=O)NCCO)c(=O)n(C)c2c1 |  |  | 180 to 182
CCNC(=O)OCc1cc(F)ccc1Cc1cnc2c(O)c(C(=O)NCCOC)c(=O)n(C)c2c1 |  |  | 157 to 159
CN(Cc1cc(F)ccc1Cc1cnc2c(O)c(C(=O)NCCO)c(=O)n(C)c2c1)S(C)(=O)=O [Example 72, 7-{4-Fluoro-2-[(methanesulfonyl-methyl-amino)-methyl]-benzyl}-4-hydroxy-1-methyl-2-oxo-1,2-dihydro-[1,5]naphthyridine-3-carboxylic acid(2-hydroxy-ethyl)-amide] | 7.00 to 9.00 | > 7.00 | 
COCc1cc(F)ccc1Cc1cnc2c(O)c(C(=O)NCCO)c(=O)n(C)c2c1 [Example 25, 7-(4-Fluoro-2-methoxymethyl-benzyl)-4-hydroxy-1-methyl-2-oxo-1,2-dihydro-[1,5]naphthyridine-3-carboxylic acid(2-hydroxy-ethyl)-amide] | 7.00 to 9.00 | > 7.00 | 
